Numbers after ± are expanded uncertainties.
Assay: xn = mol fraction of the nth substance listed
Details: Liquid, Vibrating tube method

CCCCn1cc[n+](C)c1.F[B-](F)(F)F [1-butyl-3-methylimidazolium tetrafluoroborate] + CCO
mass density [kg/m3]
Details | 348.15 K | 373.15 K
470 kPa, x1 = 1 | – | 1157.24 ± 1.2
510 kPa, x1 = 0.0701 | – | 812.28 ± 0.16
520 kPa, x1 = 0.7452 | – | 1117.1 ± 0.63
750 kPa, x1 = 0.5384 | – | 1069.65 ± 0.33
780 kPa, x1 = 0.9152 | – | 1145.53 ± 0.98
810 kPa, x1 = 0.3147 | – | 987.83 ± 0.16
5060 kPa, x1 = 0.5384 | – | 1072.77 ± 0.34
5090 kPa, x1 = 0.7452 | – | 1120.2 ± 0.66
5140 kPa, x1 = 0.9152 | – | 1148.26 ± 1
5350 kPa, x1 = 1 | – | 1160.25 ± 1.2
5790 kPa, x1 = 0.0701 | – | 818.18 ± 0.18
5820 kPa, x1 = 0.3147 | – | 992.08 ± 0.16
10070 kPa, x1 = 0.5384 | – | 1076.3 ± 0.36
10080 kPa, x1 = 1 | – | 1163.09 ± 1.2
10570 kPa, x1 = 0.9152 | – | 1151.58 ± 1.1
10610 kPa, x1 = 0.7452 | – | 1123.82 ± 0.69
10950 kPa, x1 = 0.3147 | – | 996.25 ± 0.15
11040 kPa, x1 = 0.0701 | – | 823.77 ± 0.2
15080 kPa, x1 = 0.9152 | – | 1154.27 ± 1.1
15130 kPa, x1 = 0.0701 | – | 827.92 ± 0.22
15340 kPa, x1 = 0.5384 | – | 1079.9 ± 0.38
15710 kPa, x1 = 1 | – | 1166.39 ± 1.3
15730 kPa, x1 = 0.3147 | – | 999.95 ± 0.15
15840 kPa, x1 = 0.7452 | – | 1127.11 ± 0.72
19860 kPa, x1 = 0.3147 | – | 1003.02 ± 0.15
20090 kPa, x1 = 0.7452 | – | 1129.7 ± 0.75
20540 kPa, x1 = 0.9152 | – | 1157.45 ± 1.1
20610 kPa, x1 = 0.5384 | – | 1083.37 ± 0.4
20740 kPa, x1 = 0.9152 | 1174.39 ± 1.2 | –
20870 kPa, x1 = 1 | 1185.63 ± 1.4 | –
20970 kPa, x1 = 1 | – | 1169.38 ± 1.3
21220 kPa, x1 = 0.0701 | – | 833.79 ± 0.25
21630 kPa, x1 = 0.3147 | 1023.15 ± 0.17 | –
24670 kPa, x1 = 0.9152 | – | 1159.79 ± 1.1
25130 kPa, x1 = 0.0701 | – | 837.37 ± 0.27
25140 kPa, x1 = 0.9152 | 1176.67 ± 1.2 | –
25380 kPa, x1 = 0.0701 | 858.25 ± 0.24 | –
25410 kPa, x1 = 0.7452 | 1149.62 ± 0.82 | –
25430 kPa, x1 = 0.5384 | 1104.11 ± 0.46 | –
25460 kPa, x1 = 0.7452 | – | 1132.84 ± 0.79
25820 kPa, x1 = 1 | – | 1172.07 ± 1.4
25850 kPa, x1 = 1 | 1188.16 ± 1.4 | –
25930 kPa, x1 = 0.5384 | – | 1086.76 ± 0.43
25990 kPa, x1 = 0.3147 | – | 1007.35 ± 0.16
26120 kPa, x1 = 0.3147 | 1025.95 ± 0.18 | –
29760 kPa, x1 = 0.9152 | – | 1162.61 ± 1.2
29980 kPa, x1 = 0.9152 | 1179.1 ± 1.2 | –
30010 kPa, x1 = 0.5384 | – | 1089.27 ± 0.45
30070 kPa, x1 = 0.7452 | 1152.07 ± 0.86 | 1135.43 ± 0.82
30110 kPa, x1 = 1 | 1190.19 ± 1.5 | –
30120 kPa, x1 = 1 | – | 1174.39 ± 1.4
30220 kPa, x1 = 0.0701 | 861.8 ± 0.26 | –
30550 kPa, x1 = 0.3147 | 1028.55 ± 0.19 | –
30670 kPa, x1 = 0.5384 | 1107 ± 0.48 | –
35070 kPa, x1 = 0.9152 | 1181.59 ± 1.3 | –
35110 kPa, x1 = 1 | 1192.88 ± 1.5 | –
35140 kPa, x1 = 0.7452 | 1154.63 ± 0.89 | –
35170 kPa, x1 = 0.0701 | 865.16 ± 0.28 | –
35620 kPa, x1 = 0.5384 | 1109.59 ± 0.51 | –
35630 kPa, x1 = 0.3147 | 1031.33 ± 0.19 | –
39560 kPa, x1 = 0.5384 | 1111.54 ± 0.53 | –
39610 kPa, x1 = 1 | 1194.77 ± 1.6 | –
39740 kPa, x1 = 0.9152 | 1183.8 ± 1.3 | –
39940 kPa, x1 = 0.7452 | 1156.96 ± 0.93 | –
40010 kPa, x1 = 0.3147 | 1033.56 ± 0.2 | –
40030 kPa, x1 = 0.0701 | 868.18 ± 0.3 | –

— the NIST ThermoML archive (doi:10.1007/s10765-008-0410-4)
